In the CheMixHub viscosity set:
“And” between values parts separate entries of the source, which are not always exact repeats. Equal values may be shown once.

Experiment: xn = mol fraction of the nth substance listed

CCCCOC(C)=O + CCC(C)O
viscosity [mPa·s], 100 kPa
Details | x1 = 0.081 | x1 = 0.16 | x1 = 0.24 | x1 = 0.35 | x1 = 0.44 | x1 = 0.5598 | x1 = 0.6499 | x1 = 0.74 | x1 = 0.85 | x1 = 0.94
293.15 K | 2.444 | 1.639 | 1.195 | 0.976 | 0.907 | 0.859 | 0.827 | 0.794 | 0.757 | 0.736
298.15 K | 2.041 | 1.423 | 1.045 | 0.87 | 0.805 | 0.768 | 0.746 | 0.732 | 0.703 | 0.681
303.15 K | 1.797 | 1.267 | 0.941 | 0.767 | 0.713 | 0.692 | 0.677 | 0.663 | 0.649 | 0.636
308.15 K | 1.523 | 1.084 | 0.844 | 0.692 | 0.644 | 0.618 | 0.604 | 0.597 | 0.592 | 0.584
313.15 K | 1.28 | 0.951 | 0.756 | 0.633 | 0.585 | 0.555 | 0.544 | 0.541 | 0.546 | 0.542
318.15 K | 1.111 | 0.828 | 0.681 | 0.575 | 0.531 | 0.506 | 0.5 | 0.5 | 0.502 | 0.501
323.15 K | 0.963 | 0.748 | 0.619 | 0.535 | 0.497 | 0.477 | 0.466 | 0.46 | 0.455 | 0.457

Oc1ccccc1Cl + CCCCOCCO
viscosity [mPa·s], 101 kPa
Details | x1 = 0.1256 | x1 = 0.2442 | x1 = 0.3565 | x1 = 0.4628 | x1 = 0.5638 | x1 = 0.6597 | x1 = 0.751 | x1 = 0.8379 | x1 = 0.9208
303.15 K | 3.306 | 4.125 | 4.745 | 5.08 | 5.13 | 4.92 | 4.5 | 3.975 | 3.396
308.15 K | 2.934 | 3.49 | 3.876 | 4.084 | 4.093 | 3.935 | 3.654 | 3.302 | 2.895
313.15 K | 2.604 | 2.992 | 3.267 | 3.404 | 3.405 | 3.298 | 3.106 | 2.847 | 2.563
318.15 K | 2.282 | 2.554 | 2.738 | 2.82 | 2.833 | 2.754 | 2.624 | 2.45 | 2.254

CCCN + CCCCCCCO
viscosity [mPa·s], 101.33 kPa
Details | x1 = 0.0918 | x1 = 0.1876 | x1 = 0.2917 | x1 = 0.3927 | x1 = 0.4818 | x1 = 0.6142 | x1 = 0.7167 | x1 = 0.7997 | x1 = 0.9056
303.15 K | 4.047 | 3.35 | 2.669 | 2.114 | 1.687 | 1.177 | 0.8748 | 0.678 | 0.4813
313.15 K | 3.046 | 2.522 | 2.023 | 1.593 | 1.28 | 0.9105 | 0.6933 | 0.5549 | 0.4105

CCCN + CCCCCCCCO
viscosity [mPa·s], 101.33 kPa
Details | x1 = 0.1005 | x1 = 0.1898 | x1 = 0.3064 | x1 = 0.385 | x1 = 0.4834 | x1 = 0.5835 | x1 = 0.6813 | x1 = 0.7916 | x1 = 0.8908
303.15 K | 4.988 | 4.15 | 3.23 | 2.689 | 2.107 | 1.601 | 1.182 | 0.8056 | 0.5464
313.15 K | 3.651 | 3.052 | 2.37 | 1.976 | 1.563 | 1.203 | 0.9234 | 0.6649 | 0.4703

CCCN + CC(C)(C)O
298.15 K, 101 kPa
Details | viscosity [mPa·s]
x2 = 0.0967 | 0.512
x2 = 0.2039 | 0.727
x2 = 0.3012 | 0.969
x2 = 0.4 | 1.263
x2 = 0.4992 | 1.614
x2 = 0.5874 | 1.975
x2 = 0.6813 | 2.415
x2 = 0.7999 | 3.09
x2 = 0.9183 | 3.806

CCCN + C1CCCCC1
viscosity, 101 kPa
Details | x1 = 0.00761 | x1 = 0.01688 | x1 = 0.02821 | x1 = 0.03652 | x1 = 0.04831 | x1 = 0.05697 | x1 = 0.06516 | x1 = 0.07467 | x1 = 0.08588
303.15 K | 0.8113 mPa·s | 0.8039 mPa·s | 0.7953 mPa·s | 0.789 mPa·s | 0.7803 mPa·s | 0.7736 mPa·s | 0.7669 mPa·s | 0.7583 mPa·s | 0.7506 mPa·s
313.15 K | 0.7093 mPa·s and 0.6999 mPa·s | 0.6903 mPa·s | 0.6849 mPa·s | 0.6772 mPa·s | 0.67 mPa·s | 0.6638 mPa·s | 0.6564 mPa·s | 0.6488 mPa·s | –

CCCCOC(C)=O + CC#N
303.15 K, 101.33 kPa
Details | viscosity [mPa·s]
x2 = 0.0981 | 0.6208
x2 = 0.2003 | 0.5981
x2 = 0.3003 | 0.5737
x2 = 0.403 | 0.5485
x2 = 0.5026 | 0.5195
x2 = 0.5972 | 0.4884
x2 = 0.6977 | 0.4463
x2 = 0.7987 | 0.4071
x2 = 0.8985 | 0.3669

CCCCC[NH3+].O=[N+]([O-])[O-] + O
298 K, 101 kPa
Details | viscosity [mPa·s]
x2 = 0.2 | 69.13
x2 = 0.299 | 47.41
x2 = 0.399 | 30.46
x2 = 0.499 | 20.51
x2 = 0.6 | 14.23
x2 = 0.702 | 9.1
x2 = 0.799 | 5.47
x2 = 0.9 | 2.71
x2 = 0.95 | 1.67

O=C(O)c1cc(O)c(O)c(O)c1 + CO
viscosity [mPa·s], 101 kPa
Details | 293.15 K | 298.15 K | 303.15 K | 308.15 K | 313.15 K
x1 = 0.0019 | 0.634 | 0.595 | 0.551 | 0.517 | 0.491
x1 = 0.0038 | 0.664 | 0.62 | 0.576 | 0.542 | 0.505
x1 = 0.0058 | 0.699 | 0.66 | 0.604 | 0.562 | 0.528
x1 = 0.0078 | 0.734 | 0.684 | 0.635 | 0.591 | 0.55
